PMC7496931, “Activation of Sirtuin 2 Inhibitors Employing Photoswitchable Geometry and Aqueous Solubility” (Chemmedchem, 2020)
Where two headings read alike, the source gives them in different places.

How the values were obtained:
Assay type in all cases: biochemical
[1] = target: T1, Sirt3 (Homo sapiens, UniProt Q9NTG7); assay: Fluorescence-based ZMAL deacetylase activity assay, Sirt3; set-up: key to Sirt3 inhibition Δ (class) / Sirt3 inhibition PSS [365 nm] (class): n.i.: no inhibition detected (<30 % @ 100 μM); u.i.: unspecific interactions
T1 construct: Expression and purification of Sirt1_133−747, Sirt2_56−356, and Sirt3_118−395 was carried out as described previously; made in house
T1 sequence (Q9NTG7 118-395): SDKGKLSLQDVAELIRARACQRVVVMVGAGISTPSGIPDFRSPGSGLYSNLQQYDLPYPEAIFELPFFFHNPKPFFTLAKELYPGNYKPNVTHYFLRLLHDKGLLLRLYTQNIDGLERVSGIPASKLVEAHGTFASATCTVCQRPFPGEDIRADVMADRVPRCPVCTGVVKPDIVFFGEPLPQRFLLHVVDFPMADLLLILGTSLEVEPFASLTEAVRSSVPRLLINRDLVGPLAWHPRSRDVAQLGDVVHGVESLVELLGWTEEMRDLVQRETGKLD
Experimental: (§1) The effect of the compounds on deacetylase activity of three human sirtuin isotypes (Sirt1–3) was investigated by a homogeneous fluorescence‐based assay, using (Z)‐Lys(acetyl)‐AMC (ZMAL) as substrate. In order to determine the impact of photoisomerization, the respective compounds were irradiated (365 nm, 5 min) in DMSO prior to incubation in the enzyme assay mixture. The results of the irradiated probes were finally compared to non‐irradiated measurements.
(§2) Cloning, expression and purification of recombinant proteins: Expression and purification of Sirt1_133−747, Sirt2_56−356, and Sirt3_118−395 was carried out as described previously.27 Identity and purity were verified by SDS‐PAGE.
(§3) Fluorescence‐based activity assay: The inhibitory effect of compounds on Sirt1–3 was detected via a previously reported fluorescence‐based assay.29 The synthetic substrate (Z)‐Lys(acetyl)‐AMC (ZMAL) is deacetylated by sirtuins, followed by tryptic digestion and thereby release of 7‐aminomethylcoumarin, leading to a fluorescent readout. Inhibition was determined by comparing percentage substrate conversion to a DMSO control after subtraction of the blank fluorescence signal. All compounds were tested at 100 or 50 μM and 10 μM respectively. […] IC50 values were calculated with OriginPro 9.0 G using a non‐linear regression to fit the dose response curve (Figure S6). An enzyme‐free blank control and a 100 % conversion control using AMC instead of ZMAL were measured as well. Inhibition measurements were performed in biological duplicates for all compounds. […]
(§4) Fluorescence-Based Activity Assay (ZMAL-Assay)
(§5) The influence of the synthesized compounds on the deacetylase activity of the class I sirtuins Sirt1–3 was determined in a homogenous fluorescence-based enzyme assay, using the artificial substrate Z-(Ac)Lys-AMC (ZMAL). ZMAL is processed by sirtuins yielding Z-Lys-AMC.
(§6) The latter is subsequently cleaved by tryptic digestion, releasing 7-amino-4-methylcoumarin (AMC), excitation of which leads to a fluorescent read out (λex=390 nm; λem=460 nm). Instead, […]
(§7) contribute to the fluorescence signal. Therefore, the fluorescence intensity is proportional to the activity of the respective sirtuin.
(§8) After subtraction of the blank fluorescence signal (without enzyme) from the signal of the respective probe, the residual signal intensity is related to a 100 % conversion control (AMC), […]
(§9) yielding the percentage substrate conversion. Comparison of the determined substrate conversion with a no-inhibition DMSO control yields the percentage inhibition at the respective […]
(§10) For determination of IC50, inhibitory activity of the respective compound was determined at 8 to 10 distinct concentrations. The measured values were analysed by a non-linear fit to the dose-response curve using a four parameter logistic model (Figure S6):
(§11) Figure S6: Non-linear regression of the dose-response curves of compounds 15c and 15f at the thermal equilibrium (∆, black) and after 5 minutes of 365 nm irradiation (red). […]
(§12) A maximal polarization control using just DMSO and a minimal polarization control using 1 µL of the 400 µM solution of 22 instead of inhibitor were performed as well as a blank control containing 1 µL of DMSO in 19 µL assay buffer. The mixture was incubated 10 min at 37 °C

[2] = target: T2, Sirt2 (Homo sapiens, UniProt Q8IXJ6); assay: Fluorescence-based ZMAL deacetylase activity assay, Sirt2; set-up: key to Sirt2 inhibition Δ (class): n.i.: no inhibition detected (<30 % @ 100 μM); u.i.: unspecific interactions
T2 construct: Expression and purification of Sirt1_133−747, Sirt2_56−356, and Sirt3_118−395 was carried out as described previously; made in house
T2 sequence (Q8IXJ6 56-356): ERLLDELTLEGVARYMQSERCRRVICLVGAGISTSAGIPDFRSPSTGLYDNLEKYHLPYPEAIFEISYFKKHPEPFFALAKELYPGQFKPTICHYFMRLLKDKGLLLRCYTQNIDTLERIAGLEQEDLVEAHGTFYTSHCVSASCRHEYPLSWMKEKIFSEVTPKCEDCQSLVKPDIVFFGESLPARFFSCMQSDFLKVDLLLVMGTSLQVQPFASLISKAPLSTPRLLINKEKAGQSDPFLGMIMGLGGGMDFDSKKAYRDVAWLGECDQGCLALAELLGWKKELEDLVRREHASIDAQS
Experimental: as §1, §2, §3, §4, §5, §6, §7, §8, §9, §10, §11, §12

[3] = target: T3, Sirt1 (Homo sapiens, UniProt Q96EB6); assay: Fluorescence-based ZMAL deacetylase activity assay, Sirt1
T3 construct: Expression and purification of Sirt1_133−747, Sirt2_56−356, and Sirt3_118−395 was carried out as described previously; made in house
T3 sequence (Q96EB6 133-747): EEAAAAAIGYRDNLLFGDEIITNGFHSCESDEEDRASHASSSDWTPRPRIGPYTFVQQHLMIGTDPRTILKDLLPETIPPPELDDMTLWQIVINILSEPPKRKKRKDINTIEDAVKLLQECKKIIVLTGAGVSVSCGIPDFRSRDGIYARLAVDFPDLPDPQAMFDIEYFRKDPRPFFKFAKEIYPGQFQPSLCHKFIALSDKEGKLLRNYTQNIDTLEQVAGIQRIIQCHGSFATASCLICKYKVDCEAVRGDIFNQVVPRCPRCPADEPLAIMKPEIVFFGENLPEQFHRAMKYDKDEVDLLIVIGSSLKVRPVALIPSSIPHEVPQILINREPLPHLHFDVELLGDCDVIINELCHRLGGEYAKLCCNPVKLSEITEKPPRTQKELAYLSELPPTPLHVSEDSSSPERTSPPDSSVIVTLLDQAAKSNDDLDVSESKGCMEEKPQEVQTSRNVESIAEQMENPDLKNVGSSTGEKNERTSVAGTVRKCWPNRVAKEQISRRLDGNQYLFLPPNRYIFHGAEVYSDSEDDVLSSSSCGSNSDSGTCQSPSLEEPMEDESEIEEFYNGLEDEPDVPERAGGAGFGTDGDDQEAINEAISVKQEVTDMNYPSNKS
Experimental: as §1, §2, §3, §4, §5, §6, §7, §8, §9, §10, §11
A maximal polarization control using just DMSO and a minimal polarization control using 1 µL of the 400 µM solution of 22 instead of inhibitor were performed as well as a blank control containing 1 µL of DMSO in 19 µL assay buffer. The mixture was incubated 10 min at 37 °C […]
(1 picture or pasted object on this page, not shown here)

[4] = PSS after 5 min UV irradiation (365 nm), read-out: Sirt3 inhibition PSS [365 nm], percent inhibition
[5] = thermal equilibrium (Δ), read-out: Sirt3 inhibition Δ, percent inhibition
[6] = PSS after 5 min UV irradiation (365 nm), read-out: Sirt2 inhibition PSS [365 nm], IC50
[7] = @ 100 μM, PSS after 5 min UV irradiation (365 nm), read-out: Sirt1 inhibition PSS [365 nm], percent inhibition
[8] = @ 100 μM, thermal equilibrium (Δ), read-out: Sirt1 inhibition Δ, percent inhibition
[9] = PSS after 5 min UV irradiation (365 nm), read-out: Sirt2 inhibition PSS [365 nm], percent inhibition (converted)
[10] = thermal equilibrium (Δ), read-out: Sirt2 inhibition Δ, percent inhibition (converted)
[11] = PSS after 5 min UV irradiation (365 nm), read-out: Sirt1 inhibition PSS [365 nm] (class)
[12] = thermal equilibrium (Δ), read-out: Sirt1 inhibition Δ (class)
[13] = PSS after 5 min UV irradiation (365 nm)
[14] = PSS after 5 min UV irradiation (365 nm), read-out: Sirt2 inhibition PSS [365 nm], percent inhibition
[15] = thermal equilibrium (Δ), read-out: Sirt2 inhibition Δ, percent inhibition

| SMILES | inhibition at 10 µM [1, 4] | inhibition at 10 µM [1, 5] | IC50 [2, 6] | IC50 ([2]; thermal equilibrium (Δ), read-out: Sirt2 inhibition Δ, IC50) | inhibition at 100 µM [3, 7] | inhibition at 100 µM [3, 8] | inhibition at 10 µM [2, 9] | inhibition at 10 µM [2, 10] | inhibition at 100 µM [3, 11] | inhibition at 100 µM [3, 12] | Sirt3 inhibition PSS [365 nm] (class) [1, 13] | Sirt3 inhibition Δ (class) ([1]; thermal equilibrium (Δ)) | IC50 ([1]; PSS after 5 min UV irradiation (365 nm), read-out: Sirt3 inhibition PSS [365 nm], IC50) | Sirt2 inhibition Δ (class) ([2]; thermal equilibrium (Δ)) | inhibition at 100 µM [2, 14] | inhibition at 100 µM [2, 15] | inhibition at 100 µM ([1]; @ 100 μM, PSS after 5 min UV irradiation (365 nm), read-out: Sirt3 inhibition PSS [365 nm], percent inhibition) |
| --- | --- | --- | --- | --- | --- | --- | --- | --- | --- | --- | --- | --- | --- | --- | --- | --- | --- |
| CC(C)(C)OC(=O)Cc1ccc(/N=N/c2cncc(C(N)=O)c2)cc1 [15 b] | 30% | 58% | 6.9 ± 0.6 µM | 3.9 ± 0.2 µM | 44% | 35% |  |  |  |  |  |  |  |  |  |  |  |
| CCCCCC(=O)Nc1c(C)cc(/N=N/c2cncc(C(N)=O)c2)cc1C [9 c] | 3% | 20% |  |  |  |  | 24% | 40% | < 30% | < 30% |  |  |  |  |  |  |  |
| Cc1cc(/N=N/c2cncc(C(N)=O)c2)cc(C)c1NC(=O)c1ccc(F)cc1 [9 i] |  |  |  |  |  |  | 15% | 15% | < 30% | < 30% | n.i. (n.i.: no inhibition detected (<30 % @ 100 μM)) | n.i. (n.i.: no inhibition detected (<30 % @ 100 μM)) |  |  |  |  |  |
| C#Cc1ccc(/N=N/c2cccc(COc3cncc(C(N)=O)c3)c2)cc1 [20 c] |  |  | 6.2 ± 0.54 µM |  | 62% | 45% |  |  |  |  |  | u.i. | 17.2 ± 1.57 µM | u.i. |  |  |  |
| CCCCCCCCCC(=O)Nc1c(C)cc(/N=N/c2cncc(C(N)=O)c2)cc1C [9 e] |  |  |  |  |  |  | 78% | 26% | < 30% | < 30% | u.i. | u.i. |  |  |  |  |  |
| Cc1cc(/N=N/c2cncc(C(N)=O)c2)cc(C)c1NC(=O)C12CC3CC(CC(C3)C1)C2 [9 k] |  |  |  |  |  |  |  |  | < 30% | < 30% | n.i. (n.i.: no inhibition detected (<30 % @ 100 μM)) | n.i. (n.i.: no inhibition detected (<30 % @ 100 μM)) |  |  | 71% | 43% |  |
| Cc1cc(/N=N/c2cncc(C(N)=O)c2)cc(C)c1NC(=O)c1ccccc1 [9 h] |  |  |  |  |  |  |  |  | < 30% | < 30% |  | n.i. (n.i.: no inhibition detected (<30 % @ 100 μM)) |  |  | 52% | 27% | 32% |
